Laboratory results reported in ChEMBL document CHEMBL6078713, “Synthesis and mechanistic studies of 4-aminoquinoline-Isatin molecular hybrids and Schiff's bases as promising antimicrobial agents” (Eur J Med Chem, 2025).
In brackets after ≈: the same amount, converted by molar mass. Activity calls are given as the source filed them. The rule behind the calls is not given here.

Key:
Enterococcus faecalis [1] = assay: microbe, parasite or virus in culture; details: MTCC 439
Description: Synergistic antibacterial activity against Enterococcus faecalis MTCC 439 assessed as inhibition of bacterial growth incubated overnight in presence of LT-SB5 by serial dilution based spectrophotometer

Salmonella typhi [2] = assay: Antibacterial activity against Salmonella typhi assessed as inhibition of bacterial growth incubated overnight by serial dilution based spectrophotometer; type: functional, Salmonella enterica subsp. enterica serovar Typhi; details: Salmonella enterica
Escherichia coli = assay: microbe, parasite or virus in culture; details: MTCC 443
Description: Synergistic antibacterial activity against Escherichia coli MTCC 443 assessed as inhibition of bacterial growth incubated overnight in presence of SB5 by serial dilution based spectrophotometer

Salmonella typhi [3] = assay: Synergistic antibacterial activity against Salmonella typhi assessed as inhibition of bacterial growth incubated overnight in presence of LT-SB7 by serial dilution based spectrophotometer; details: Salmonella enterica
Bacillus subtilis [4] = assay: microbe, parasite or virus in culture; details: MTCC 736
Description: Synergistic antibacterial activity against Bacillus subtilis MTCC 736 assessed as inhibition of bacterial growth incubated overnight in presence of SB9 by serial dilution based spectrophotometer

Enterococcus faecalis [5] = assay: microbe, parasite or virus in culture; details: MTCC 439; remark: listed apart in the source
Description: Synergistic antibacterial activity against Enterococcus faecalis MTCC 439 assessed as inhibition of bacterial growth incubated overnight in presence of SB5 by serial dilution based spectrophotometer

Salmonella typhi [6] = assay: Synergistic antibacterial activity against Salmonella typhi assessed as inhibition of bacterial growth incubated overnight in presence of LT-SB5 by serial dilution based spectrophotometer; details: Salmonella enterica
Bacillus subtilis [7] = assay: microbe, parasite or virus in culture; details: MTCC 736; remark: listed apart in the source
Description: Synergistic antibacterial activity against Bacillus subtilis MTCC 736 assessed as inhibition of bacterial growth incubated overnight in presence of LT-SB23 by serial dilution based spectrophotometer

Bacillus subtilis [8] = assay: microbe, parasite or virus in culture; details: MTCC 736; remark: listed apart in the source
Description: Synergistic antibacterial activity against Bacillus subtilis MTCC 736 assessed as inhibition of bacterial growth incubated overnight in presence of LT-SB7 by serial dilution based spectrophotometer

Bacillus subtilis [9] = assay: Antibacterial activity against Bacillus subtilis MTCC 736 assessed as diameter of zone of inhibition at 500 ug/ml by agar disk diffusion method; type: functional; details: read-out: DIZ
Bacillus subtilis [10] = assay: Antibacterial activity against Bacillus subtilis MTCC 736 assessed as inhibition of bacterial growth incubated overnight by serial dilution based spectrophotometer; type: functional
Enterococcus faecalis [11] = assay: Antibacterial activity against Enterococcus faecalis MTCC 439 assessed as inhibition of bacterial growth incubated overnight by serial dilution based spectrophotometer; type: functional
Staphylococcus aureus [12] = assay: Bacteriostatic activity against Staphylococcus aureus MTCC 902 assessed as reduction in bacterial growth measured upto 24 hrs by absorbance based assay; type: functional, organism-based
Enterococcus faecalis [13] = assay: microbe, parasite or virus in culture; details: MTCC 439; remark: listed apart in the source
Description: Synergistic antibacterial activity against Enterococcus faecalis MTCC 439 assessed as inhibition of bacterial growth incubated overnight in presence of LT-SB7 by serial dilution based spectrophotometer

Staphylococcus aureus [14] = assay: Antibacterial activity against Staphylococcus aureus MTCC 902 assessed as diameter of zone of inhibition at 500 ug/ml by agar disk diffusion method; type: functional; details: read-out: DIZ
Enterococcus faecalis [15] = assay: microbe, parasite or virus in culture; details: MTCC 439; remark: listed apart in the source
Description: Synergistic antibacterial activity against Enterococcus faecalis MTCC 439 assessed as inhibition of bacterial growth incubated overnight in presence of LT-SB23 by serial dilution based spectrophotometer

Pseudomonas aeruginosa = assay: Antibacterial activity against Pseudomonas aeruginosa MTCC 2453 assessed as diameter of zone of inhibition at 500 ug/ml by agar disk diffusion method; type: functional; details: read-out: DIZ
Salmonella typhi [16] = assay: Synergistic antibacterial activity against Salmonella typhi assessed as inhibition of bacterial growth incubated overnight in presence of LT-SB23 by serial dilution based spectrophotometer; details: Salmonella enterica
Salmonella typhi [17] = assay: Antibacterial activity against Salmonella typhi assessed as diameter of zone of inhibition at 500 ug/ml by agar disk diffusion method; type: functional, Salmonella enterica subsp. enterica serovar Typhi; details: Salmonella enterica, read-out: DIZ
Enterococcus faecalis [18] = assay: Antibacterial activity against Enterococcus faecalis MTCC 439 assessed as diameter of zone of inhibition at 500 ug/ml by agar disk diffusion method; type: functional; details: read-out: DIZ
Bacillus subtilis [19] = assay: microbe, parasite or virus in culture; details: MTCC 736; remark: listed apart in the source
Description: Synergistic antibacterial activity against Bacillus subtilis MTCC 736 assessed as inhibition of bacterial growth incubated overnight in presence of LT-SB5 by serial dilution based spectrophotometer

Which results are given for `O=C(O)c1cn(C2CC2)c2cc(N3CCNCC3)c(F)cc2c1=O` [CIPROFLOXACIN]?
MIC (Enterococcus faecalis [1]): 0.5 µg/mL (≈ 1.51 µM); MIC (Salmonella typhi [2]): 0.5 µg/mL (≈ 1.51 µM); MIC (Escherichia coli): 0.062 µg/mL (≈ 0.187 µM); MIC (Salmonella typhi [3]): 0.031 µg/mL; MIC (Bacillus subtilis [4]): 0.5 µg/mL (≈ 1.51 µM); MIC (Enterococcus faecalis [5]): 0.5 µg/mL (≈ 1.51 µM); MIC (Salmonella typhi [6]): 0.031 µg/mL; MIC (Bacillus subtilis [7]): 1 µg/mL (≈ 3.02 µM); MIC (Bacillus subtilis [8]): 0.25 µg/mL (≈ 0.754 µM); zone of inhibition at 500 µg/mL (Bacillus subtilis [9]): 22 mm; MIC (Bacillus subtilis [10]): 1 µg/mL (≈ 3.02 µM); MIC (Enterococcus faecalis [11]): 0.5 µg/mL (≈ 1.51 µM); Activity (Staphylococcus aureus [12]): Active; MIC (Enterococcus faecalis [13]): 0.125 µg/mL (≈ 0.377 µM); zone of inhibition at 500 µg/mL (Staphylococcus aureus [14]): 19 mm; MIC (Enterococcus faecalis [15]): 0.125 µg/mL (≈ 0.377 µM); zone of inhibition at 500 µg/mL (Pseudomonas aeruginosa): 24 mm; MIC (Salmonella typhi [16]): 0.031 µg/mL; zone of inhibition at 500 µg/mL (Salmonella typhi [17]): 18 mm; zone of inhibition at 500 µg/mL (Enterococcus faecalis [18]): 18 mm; MIC (Bacillus subtilis [19]): 1 µg/mL (≈ 3.02 µM)
